{"source": "patent US20070249695A1", "about": "“Preventive and/or Therapeutic Agents for Meniere's Disease” (priority 2004, published 2007)", "key": {"Meniere's disease": {"tested_on": "Meniere's disease", "settings": "existing drug (diuretic drug); cited from earlier work"}, "[1]": {"tested_on": "patients afflicted with Meniere's disease", "experiment": "clinical pharmacological test in patients afflicted with Meniere's disease (Example 1)", "type": "in vivo", "settings": "450 mg daily", "protocol": "Pranlukast hydrate (trade name: onon capsule) was administered to 19 patients afflicted with Meniere's disease at a daily dose of 450 mg (two capsules each containing 112.5 mg individually after breakfast and after dinner) for the period of not less than three weeks (up to 24 weeks max.) to test and determine the efficacy. The overall efficacy (therapeutic) assessment was performed mainly on the basis of the results of nystagmus and hearing tests, while also taking into consideration the subjective symptoms (rotary vertigo, tinnitus, a feeling of fullness in ear, hearing rimpairment, etc.) and the extent or degree of hearing impairment (average hearing, method of quartering). In consequence of this, the efficacy was recognized and determined in 17(89.5%) out of 19 patients afflicted with Meniere's disease."}, "[2]": {"tested_on": "patients suffering from acute low-tone sensorineural hearing loss", "experiment": "clinical test in patients with acute low-tone sensorineural hearing loss (Example 2)", "type": "in vivo", "settings": "for Hearing in the sound ear 500 Hz: before administration 10 dB; for Hearing in the sound ear 250 Hz: before administration 15 dB; for Hearing in the sound ear Average hearing level: before administration 17 dB; for Hearing in the sound ear 125 Hz: before administration 25 dB; for Hearing in the affected ear 500 Hz: before administration 35 dB; for Hearing in the affected ear 125 Hz: before administration 40 dB; for Hearing in the affected ear Average hearing level: before administration 42 dB; for Hearing in the affected ear 250 Hz: before administration 50 dB", "protocol": "Pranlukast hydrate (trade name: Onon capsule) was administered to the patients suffering from acute low-tone sensorineural hearing loss concurrently with a feeling of fullness in the left ear at a daily dose of 450 mg (two capsules each containing 112. 5 mg given individually after breakfast and dinner) for two months to investigate into the efficacy against hearing impairment, the major complaint. In connection to the above test, it is to be noted that selection of patients was performed in accordance with a draft of the Criteria for Diagnosis proposed by Study Group for Acute Severe Hearing Loss of the Ministry of Health, Labor and Welfare of Japan (refer to Audiology Japan., 45, 161-166 (2002))."}, "mice": {"tested_on": "mice", "experiment": "acute toxicity, minimum lethal dose", "type": "in vivo", "settings": "male and female, orally or subcutaneously"}, "rats": {"tested_on": "rats", "experiment": "acute toxicity, minimum lethal dose", "type": "in vivo", "settings": "male and female, orally or subcutaneously"}}, "data": [{"compound": "O[C@@H]1CO[C@H]2[C@@H]1OC[C@@H]2O", "note": "[isosorbide]", "values": [{"measurement": "efficacy against hearing impairment, tinnitus and a feeling of fullness in the ear", "setting": "Meniere's disease", "result": "hardly been found to exhibit the efficacy"}]}, {"compound": "O=C(Nc1cccc2c(=O)cc(-c3nnn[nH]3)oc12)c1ccc(OCCCCc2ccccc2)cc1", "note": "[pranlukast hydrate, 4-oxo-8-[4-(4-phenylbutoxy)benzoylamino]-2-(tetrazol-5-yl)-4H-1-benzopyran ½ hydrate]", "values": [{"measurement": "overall efficacy, patients in whom efficacy was recognized", "setting": "[1]; oral, not less than three weeks (up to 24 weeks), 17 out of 19 patients", "result": 89.5, "unit": "%"}, {"measurement": "effective rate in patients suffering from vertigo (rotary vertigo or stagger)", "setting": "[1]; 6 out of 6 patients", "result": 100, "unit": "%"}, {"measurement": "efficacy in patients complaining of the subjective symptoms", "setting": "[1]; 15 out of 19 patients", "result": 78.9, "unit": "%"}, {"measurement": "efficacy in patients suffering from hearing impairment", "setting": "[1]; 15 out of 19 patients", "result": 78.9, "unit": "%"}, {"measurement": "average hearing level recovered", "setting": "[2]; 450 mg daily, after one month of administration, affected ear", "result": 19, "unit": "dB"}, {"measurement": "efficacy evaluation (healed/ameliorated/unchanged/worsened)", "setting": "[2]; 450 mg daily, after two months of administration", "result": "healing"}, {"measurement": "effect on subjective symptoms and hearing", "setting": "[2]; 450 mg daily, within one week of administration", "result": "tendency of amelioration"}, {"measurement": "Hearing in the sound ear 500 Hz", "setting": "[2]; after one month", "result": 15, "unit": "dB"}, {"measurement": "Hearing in the sound ear 250 Hz", "setting": "[2]; after one month", "result": 15, "unit": "dB"}, {"measurement": "Hearing in the sound ear Average hearing level", "setting": "[2]; after one month", "result": 18, "unit": "dB"}, {"measurement": "Hearing in the sound ear 125 Hz", "setting": "[2]; after one month", "result": 25, "unit": "dB"}, {"measurement": "Hearing in the affected ear 500 Hz", "setting": "[2]; after one month", "result": 15, "unit": "dB"}, {"measurement": "Hearing in the affected ear 125 Hz", "setting": "[2]; after one month", "result": 30, "unit": "dB"}, {"measurement": "Hearing in the affected ear Average hearing level", "setting": "[2]; after one month", "result": 23, "unit": "dB"}, {"measurement": "Hearing in the affected ear 250 Hz", "setting": "[2]; after one month", "result": 25, "unit": "dB"}, {"measurement": "Hearing in the sound ear 500 Hz", "setting": "[2]; after two months", "result": 10, "unit": "dB"}, {"measurement": "Hearing in the sound ear 250 Hz", "setting": "[2]; after two months", "result": 15, "unit": "dB"}, {"measurement": "Hearing in the sound ear Average hearing level", "setting": "[2]; after two months", "result": 17, "unit": "dB"}, {"measurement": "Hearing in the sound ear 125 Hz", "setting": "[2]; after two months", "result": 25, "unit": "dB"}, {"measurement": "Hearing in the affected ear 500 Hz", "setting": "[2]; after two months", "result": 10, "unit": "dB"}, {"measurement": "Hearing in the affected ear 125 Hz", "setting": "[2]; after two months", "result": 25, "unit": "dB"}, {"measurement": "Hearing in the affected ear Average hearing level", "setting": "[2]; after two months", "result": 18, "unit": "dB"}, {"measurement": "Hearing in the affected ear 250 Hz", "setting": "[2]; after two months", "result": 20, "unit": "dB"}, {"measurement": "minimum lethal dose", "setting": "mice", "result": "not less than 2000 mg/kg"}, {"measurement": "minimum lethal dose", "setting": "rats", "result": "not less than 2000 mg/kg"}]}]}
